Measurements from paper PMC6408513, “A Novel Lactate Dehydrogenase Inhibitor, 1-(Phenylseleno)-4-(Trifluoromethyl) Benzene, Suppresses Tumor Growth through Apoptotic Cell Death” (Scientific Reports, 2019).

Columns and labels:
[1] = target: T1, lactate dehydrogenase A (LDHA) (Homo sapiens, UniProt P00338); test: in vitro LDH activity assay by NADH fluorescence; Michaelis-Menten/Lineweaver-Burk; inhibits […]-pyruvate binding; format: biochemical; parameters: purified recombinant human LDHA
[2] = target: T1, lactate dehydrogenase A (LDHA); test: […]-pyruvate radioligand binding to bead-bound LDHA, competed by unlabeled pyruvate; parameters: purified His tagged-LDHA
[3] = target: T1, lactate dehydrogenase A (LDHA); test: in vitro LDH activity assay by NADH fluorescence; format: biochemical; parameters: purified recombinant human LDHA

## FC(F)(F)c1ccc([Se]c2ccccc2)cc1 [PSTMB, 1-(phenylseleno)-4-(trifluoromethyl)benzene]
[1]
  IC50: 145 nM

## CC(=O)C(=O)O [pyruvate]
[2]
  14C-pyruvate radioligand binding to bead-bound LDHA, competed by unlabeled pyruv: The binding of pyruvate to LDHA was determined using C^14-labeled pyruvate.

## c1ccc([Se]C2CCSC2)cc1 (stereo not drawn) [tetrahydro-3-(phenylseleno) thiophene]
[3]
  in vitro LDH activity assay by NADH fluorescence: tetrahydro-3-(phenylseleno) thiophene, and 1-methoxy-4-[(phenylmethyl)seleno]benzene had inhibitory effects on LDHA activity
